According to patent publication US20190255144A1, “SPECIFIC OLIGOPEPTIDES AS ANTI-ANGIOGENIC DRUGS” (NEURONAX, priority 2014, published 2019):
Several values for one entry are separate records, joined by “and”; a condition that tells them apart may be missing. Equal entries are not always repeated.

Assays:
U87-MG cells = test: Proteome array of supernatants of U87-MG cells (proteins involved in angiogenesis); assay type: cell-based; settings: for DPPIV/CD 26, proteome array / Endoglin/CD105, proteome array / Endothelin-1 (ET-1), proteome array / IGFBP-1, proteome array / IGFBP-3, proteome array / IL-8/CXCL8, proteome array / MCP-1/CCL2, proteome array / NRG1-β1/HRG1-β1, proteome array / Pentraxin 3 (PTX3)/TSG-14, proteome array / Serpin E1/Pal-1, proteome array / TIMP-1, proteome array / TIMP-4, proteome array / TSP-1, proteome array / VEGF, proteome array / uPA, proteome array: supernatant of U87-MG after treatment
Text: (§1) FIGS. 2A to 2C represent analysis results of soluble factors that occur in angiogenesis: • Supernatants of U87-MG cells were studied by proteome array (FIGS. 2A and 2B) for the research of proteins involved in angiogenesis, in the presence of sterile water, TSP-1 and the oligopeptide according to the invention. The secretions of VEGFA via the U87-MG in the medium after treatments with sterile water, TSP-1 and the oligopeptide according to the invention, were metered by ELISA from supernatants (FIG. 2C).

[1] = test system: secretions of VEGFA via the U87-MG; test: ELISA metering of VEGF in the supernatant of U87-MG; assay type: cell-based; settings: for VEGF ELISA reading, Val1 / VEGF ELISA reading, Val2 / VEGF Mean / VEGF pg/mL1 / VEGF pg/mL2 / VEGF ELISA reading, Mean: supernatant of U87-MG (SN U87) after treatment; for VEGF ELISA reading, Mean: mean of Val1 and Val2
Text: as §1

[2] = test system: tumors from subcutaneous heterotopic grafts; test: Tumors from subcutaneous heterotopic grafts in nude mouse: Ki67, CD31, tumor volume; assay type: in vivo; settings: for Tumor Volume D0: day 0 after injection of cancer cells, treatment in hydrogel injected on 21st day; for Tumor Volume D5: day 5 after injection of cancer cells; for Tumor Volume D5 / Tumor Volume D12 / Tumor Volume D17 / Tumor Volume D19: before treatment (21st day); for Tumor Volume D12: day 12 after injection of cancer cells; for Tumor Volume D17: day 17 after injection of cancer cells; for Tumor Volume D19: day 19 after injection of cancer cells; for Tumor Volume D21: day 21 after injection of cancer cells, day of treatment injection in hydrogel; for Tumor Volume D23: day 23 after injection of cancer cells, 48 hours after treatment in hydrogel; for Ki67 labeling quantification, Mean Center / CD31 labeling quantification, Center: tumor center
Text: FIGS. 7A to 7E show the results of the analysis of the activity of the oligopeptide according to the invention on the proliferation, the vascularization, and the tumor growth in nude mice: • The images A, B and C of FIG. 7A show the immunolabeling of Ki-67 on tumor sections treated by H2O, TSP-1 or the oligopeptide according to the invention respectively. • The images D, E and F of FIG. 7A are magnifications (2×) of FIGS. A, B and C. • The images G, H and I of FIG. 7A represent the immunolabeling of CD31 on tumor sections that are treated by H2O, TSP-1 or the oligopeptide according to the invention respectively (the bars of the scale correspond to 500 μm). • The images J, K and L of FIG. 7A are magnifications (2×) of the images G, H and I.
The Ki-67 labeling was quantified under the various conditions using imageJ software, and comparisons between the center and the edge of tumors and between the conditions were carried out (FIG. 7B) by analysis of variances (ANOVA test). A value of p<0.05 is considered to be significant. * p<0.05 that is compared to the center of the same tumors; $ p<0.05 and $$ p<0.01 that is compared to the control. • The CD31 labeling was quantified under the various conditions using image J software, and comparisons between the center and the edge of tumors and between the conditions were carried out (FIG. 7C) by analysis of variances (ANOVA test). […] The injections of the treatments (hydrogel by itself, TSP-1 and the oligopeptide according to the invention (NX) were carried out on the 21st day (black arrow)). The comparison of the tumor sizes in comparison to the controls was carried out by analysis of variances (ANOVA test). ** p<0.01; *** p<0.001.
The experimentation on the mouse confirms the results that are obtained with the CAM model. In this case, the tumors were obtained from subcutaneous heterotopic grafts in the area of the leg of a nude mouse (FIGS. 7B, 7C and 7E).
Tables 6, 7 and 8: These tables correspond to the raw values that are obtained during various analyses conducted on the tumors that are treated in vivo. Analysis of the proliferation (Ki67 labeling quantification) (F), analysis of the vascularization (CD31 labeling quantification) (G) and analysis of the tumor growth as a function of time (measurement of the tumor volume) (H). “con,” “CTRL” and “hydrogel” treatments are control conditions, “TSP” and “TSP1” are the treatments with thrombospondin 1 (TSP-1), and NX is the treatment with the peptide according to the invention

Toxicity on injection = assay type: in vivo; settings: injections of 20 mg/kg
HUVECs or HBMECs = test: Proliferation of endothelial cells; assay type: cell-based; settings: in vitro
HBMECs = test: Migration of endothelial cells; assay type: cell-based
[3] = nude mouse tumor sections, tumor edge

Substance: —W—S-G-W—S—S—C—S—R—S—C-G- (WSGWSSCSRSCG; Oligopeptide derived from SCO-Spondin) [NX]
- MCP-1 secretion (in words) (U87-MG cells; medium of treated U87-MG cells): large increase in MCP-1
- DPPIV/CD 26, proteome array (U87-MG cells): 0.08222
- Endoglin/CD105, proteome array (U87-MG cells): 0
- Endothelin-1 (ET-1), proteome array (U87-MG cells): 0.09418
- IGFBP-1, proteome array (U87-MG cells): 1.165
- IGFBP-3, proteome array (U87-MG cells): 0.1856
- IL-8/CXCL8, proteome array (U87-MG cells): 1.698
- MCP-1/CCL2, proteome array (U87-MG cells): 1.861
- NRG1-β1/HRG1-β1, proteome array (U87-MG cells): 0.1465
- Pentraxin 3 (PTX3)/TSG-14, proteome array (U87-MG cells): 0.6179
- Serpin E1/Pal-1, proteome array (U87-MG cells): 0.8632
- TIMP-1, proteome array (U87-MG cells): 3.888
- TIMP-4, proteome array (U87-MG cells): 2.15
- TSP-1, proteome array (U87-MG cells): 0.07983
- VEGF, proteome array (U87-MG cells): 1.021
- uPA, proteome array (U87-MG cells): 1.209
- VEGF-A in the supernatant of U87-MG (in words) [1]: reduction in VEGF-A
- VEGF ELISA reading, Val1 [1]: 0.333
- VEGF ELISA reading, Val2 [1]: 0.266
- VEGF Mean [1]: 287 pg/mL
- VEGF pg/mL1 [1]: 342.8 pg/mL
- VEGF pg/mL2 [1]: 231.2 pg/mL
- VEGF ELISA reading, Mean [1]: 0.2995
- Cell proliferation, Ki-67 labeling (in words) ([2]; nude mice tumors): decrease in the Ki-67 labeling
- CD31 labeling (in words) ([2]; nude mice tumors, periphery, compared with control): reduction in the CD31 labeling on the periphery
- Tumor volume change (in words) ([2]; nude mice, 48 hours after the treatment): decrease in volume
- Tumor Volume D0 ([2]; nude mice): 0 mm^3
- Tumor Volume D5 ([2]; nude mice): 46.46 mm^3
- Tumor Volume D12 ([2]; nude mice): 39.04 mm^3
- Tumor Volume D17 ([2]; nude mice): 70.6 mm^3
- Tumor Volume D19 ([2]; nude mice): 78.82 mm^3
- Tumor Volume D21 ([2]; nude mice): 135.6 mm^3
- Tumor Volume D23 ([2]; nude mice): 68.03 mm^3
- Ki67 labeling quantification, Mean Center ([2]; nude mouse tumor sections): 181.7
- CD31 labeling quantification, Center ([2]; nude mouse tumor sections, raw values): 26 and 40 and 28 and 38
- Ki67 labeling quantification, Mean Edge [2, 3]: 49.75
- Toxicity (Toxicity on injection): no toxicity
- Proliferation of HUVECs or HBMECs (HUVECs or HBMECs): does not modulate the proliferation
- Migration of the HBMECs induced by glioblastoma tumor cells (HBMECs; brought into contact with the U87-MG or HBMECs): inhibits
- Migration in the presence of an angiogenic factor (HBMECs; in the presence of VEGF or bFGF): promotes the migration

Substance: thrombospondin 1 [TSP, reference compound]
- IL-8 secretion (in words) (U87-MG cells; medium of treated U87-MG cells): significant increase in IL-8
- DPPIV/CD 26, proteome array (U87-MG cells): 0
- Endoglin/CD105, proteome array (U87-MG cells): 0.09236
- Endothelin-1 (ET-1), proteome array (U87-MG cells): 0.0994
- IGFBP-1, proteome array (U87-MG cells): 1.724
- IGFBP-3, proteome array (U87-MG cells): 0.5713
- IL-8/CXCL8, proteome array (U87-MG cells): 2.901
- MCP-1/CCL2, proteome array (U87-MG cells): 0.1534
- NRG1-β1/HRG1-β1, proteome array (U87-MG cells): 0
- Pentraxin 3 (PTX3)/TSG-14, proteome array (U87-MG cells): 0.7118
- Serpin E1/Pal-1, proteome array (U87-MG cells): 0.855
- TIMP-1, proteome array (U87-MG cells): 4.593
- TIMP-4, proteome array (U87-MG cells): 2.041
- TSP-1, proteome array (U87-MG cells): 0.08481
- VEGF, proteome array (U87-MG cells): 1.397
- uPA, proteome array (U87-MG cells): 1.489
- VEGF ELISA reading, Val1 [1]: 0.5
- VEGF ELISA reading, Val2 [1]: 0.518
- VEGF Mean [1]: 636.2 pg/mL
- VEGF pg/mL1 [1]: 621.2 pg/mL
- VEGF pg/mL2 [1]: 651.2 pg/mL
- VEGF ELISA reading, Mean [1]: 0.509
- Tumor Volume D0 ([2]; nude mice): 0 mm^3
- Tumor Volume D5 ([2]; nude mice): 33.55 mm^3
- Tumor Volume D12 ([2]; nude mice): 29.93 mm^3
- Tumor Volume D17 ([2]; nude mice): 49.88 mm^3
- Tumor Volume D19 ([2]; nude mice): 81.07 mm^3
- Tumor Volume D21 ([2]; nude mice): 112.5 mm^3
- Tumor Volume D23 ([2]; nude mice): 101.9 mm^3
- Ki67 labeling quantification, Mean Center ([2]; nude mouse tumor sections): 200.3
- CD31 labeling quantification, Center ([2]; nude mouse tumor sections, raw values, listed as TSP1): 66 and 53 and 63 and 56
- Ki67 labeling quantification, Mean Edge [2, 3]: 228.2
- CD31 labeling quantification, Edge ([2]; nude mouse tumor sections, tumor edge, raw values, listed as TSP1): 53 and 42 and 39 and 45
